From patent publication US20050221337A1, “Microarrays and microspheres comprising oligosaccharides, complex carbohydrates or glycoproteins” (priority 2003, published 2005)

T1: cyanovirin-N (CVN) (Nostoc ellipsosporum, UniProt P81180)
T1 sequence (P81180 1-101): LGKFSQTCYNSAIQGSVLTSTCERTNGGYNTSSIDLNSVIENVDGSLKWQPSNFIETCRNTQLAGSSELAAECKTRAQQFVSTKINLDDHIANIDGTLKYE

T2: CVN (Nostoc ellipsosporum, UniProt P81180)
T2 sequence (P81180 1-101): T1 sequence (P81180 1-101)

B1: CVN: HIV-inactivating 11 kDa protein from Nostoc ellipsosporum that binds high-mannose oligosaccharides of gp120 (protein, UniProt P81180 1-101, looked up)
Cyanovirin-N: T1 sequence (P81180 1-101)

Tests used:
cyanovirin N (CV-N) = cyanovirin N (CV-N) (Nostoc ellipsosporum, UniProt P81180); assay: Fiber optic microsphere array incubated with BODIPY-labeled CV-N; assay type: binding; settings: CV-N 50 μg mL^−1, five minutes; excitation 488 nm
From the text: Five synthetic carbohydrates (1,3-6) were immobilized on microspheres carrying a unique internal code for each structure. A small aliquot of each of the five dispersions was mixed together and used to microsphere array.
At five minutes the CV-N solution was removed and replaced with a fresh buffer solution. BODIPY excitation wavelength (488 nm) was passed through the optical fiber and BODIPY emission wavelengths were collected on the CCD camera. Three of the five structures (3,5,6) present were bound by CV-N in accordance with isothermal microcalorimetry studies P. H. Seeberger et al. Chemistry and Biology 2002, 9, 1109.

cyanovirin-N (CVN) = biological target: T1, cyanovirin-N (CVN); assay: High-mannose oligosaccharide microarray incubated with BODIPY-labeled CVN, fluorescence scan; assay type: binding, Nostoc elliposporum; settings: for BODIPY-labeled CVN fluorescence (binding) on immobilized saccharide spots: BODIPY-CVN 25 μg mL-1, 1 hour, room temperature, BSA coated slide; for CVN spot fluorescence intensity relative to nonamannoside (normalized to background): higher printed concentrations 1 mM-0.5 mM (FIG. 9)
Description: Using the aforementioned thiol terminated linker, a series of high-mannose oligosaccharides were prepared (Scheme 6). Arrays were printed on a BSA coated slide, as above, varying the concentration of printed oligosaccharide, and blocked with 3-mercaptoproprionic acid.
It was of interest to establish whether the microarray platform may serve to probe relative affinities of CVN for the different high-mannose structures. A microarray containing the four oligosaccharide structures was prepared with carbohydrate concentrations ranging from 0.008 mM to 2 mM. […] At lower dilutions, however, this trend is reversed. This discrepancy from the isocalorimetry data can be explained by the density of covalently immobilized saccharide at saturating concentrations. We hypothesize that the size of the nonasaccharide, compared to the other structures immobilized, might sterically occlude reactive sites leading to decreased amounts of immobilized structure. As previously observed, two distinct CVN binding domains can each interact with a single α1,2-linked linear trimannoside. We reason that a higher surface concentrations of 3 permits this multivalent interaction to take place.
Functionalization of slides: SuperAldehyde slides (TeleChem International) were immersed in 50 mL phosphate buffered saline (PBS) containing 1% bovine serum albumin (BSA; w/v) and incubated overnight at room temperature. The slides were rinsed twice with distilled H2O (100 mL), twice with 95% ethanol (50 mL) and then dried under a stream of dry Ar. Thereafter the slides were immersed in 45 mL of anhydrous DMF (Aldrich) containing 65 mg succinimidyl-4-(Nmaleimidomethyl)cyclohexane-1-carboxyiate. (Pierce Chemical) and 100 mM N,N-Diisopropylethylamine (Aldrich). The slides were incubated in this solution for 24 hours at room temperature, washed 4 times with 95% ethanol (50 mL) and then stored in a vacuum dessicator until used for microarray fabrication.
Microarray fabrication: Thiol functionalized carbohydrates were incubated 1 hr at room temperature with 1 equivalent tris-(carboxyethyl)phosphine hydrochloride (TCEP) in 1×PBS, and printed on the maleimide derivitized glass slides using a MicroGrid TAS array printer. Prints were performed at 30% humidity using either a 16-pin or 32-pin format, with a spot size of 120 μm and a distance of 300 μm between the centers of adjacent spots. Thereafter, the slides were stored in a humid chamber at room temperature for 12 hours, washed 2 times with distilled H2O, and then incubated for 1 hour in 1 mM 3-mercaptopropionic acid in PBS (50 mL) to quench all remaining maleimide groups. The slides were washed three times with distilled H2O (50 mL), two times with 95% ethanol (50 mL) and then stored in a vacuum dessicator until used for binding experiments.
Detection of protein-carbohydrate interactions: In experiments involving FITC labeled ConA (Sigma), the lectin was used at 25 μg mL^−1 in 10 mM HEPES-BSA buffer (pH 7.5, 1 mM CaCl2, 1 mM MnCl2, 100 mM NaCl, 1% (w/v) BSA). In experiments involving BODIPY-labeled CVN, the CVN was used at 25 μg mL-1 in 10 mM PBS containing 1% BSA. For all incubations, 0.55 mL of protein solution was applied to the slide using a PC500 CoverWell incubation chamber (Grace BioLabs). Following a 1 hour incubation at room temperature, the slides were washed three times with 50 mL of the same buffer used in the incubation, twice with 50 mL distilled H2O and then centrifuged at 200 g for 5 minutes to ensure complete dryness. To visualize fluorescence, the slides were scanned using an ArrayWoRx fluorescence slide scanner (Applied Precision).

CVN = biological target: T2, CVN; settings: recent isothermocalorimetry and NMR study; read-out: Kd of CVN binding; cited from earlier work
Concanavalin A (ConA) [1] = biological target: T3, Concanavalin A (ConA) (Canavalia ensiformis, UniProt P02866)
Concanavalin A (ConA) [2] = biological target: T3, Concanavalin A (ConA); assay: Carbohydrate microarray incubated with FITC-labeled ConA, fluorescence scan; assay type: binding; settings: FITC-ConA 25 μg mL^−1, 1 hour, room temperature; 120 μm spots on maleimide-BSA slide
From the text: Protein-carbohydrate interactions were examined using the mannose/glucose specific lectin Concanavalin A (ConA). Microarrays were constructed through the maleimide derivatization of BSA coated glass slides to create a thiol-reactive surface (FIG. 1). Thiol derivatized mannose and galactose were printed as 120 μm spots using a microarray printing robot. The remaining maleimide groups were subsequently quenched with a solution of 3-mercaptopropionic acid to render the slides unreactive to cysteine containing proteins. The carbohydrate microarrays were incubated with a solution of FITC-labeled ConA. The arrays were thoroughly rinsed with buffer, dried by centrifugation and scanned with a fluorescence slide scanner. […] Utilizing proteins conjugated to fluorophores of non-overlapping excitation and-emission spectra enabled facile two-color detection. […] See Bidlingmaier, S.; Synder, M. Chemistry and Biology 2002, 9, 400. […]
Detection of protein-carbohydrate interactions: In experiments involving FITC labeled ConA (Sigma), the lectin was used at 25 μg mL^−1 in 10 mM HEPES-BSA buffer (pH 7.5, 1 mM CaCl2, 1 mM MnCl2, 100 mM NaCl, 1% (w/v) BSA). […] To visualize fluorescence, the slides were scanned using an ArrayWoRx fluorescence slide scanner (Applied Precision).

host cells = settings: natural and recombinant forms of CVN; cited from earlier work
HIV strains = settings: natural and recombinant forms of CVN; cited from earlier work

Molecule	BODIPY-labeled CV-N binding to oligosaccharide-bearing beads (cyanovirin N (CV-N))	BODIPY-labeled CVN fluorescence (binding) on immobilized saccharide spots (cyanovirin-N (CVN))	CVN spot fluorescence intensity relative to nonamannoside (normalized to background) (cyanovirin-N (CVN))	Kd (CVN) [nM]	further results
hexamannoside [compound 5]	bound by CV-N	fluorescence was detected	higher fluorescence intensities than the nonamannoside	–	–
linear trimannoside [compound 3]	bound by CV-N	fluorescence was detected	higher fluorescence intensities than the nonamannoside	3480	–
nonamannoside [compound 6]	bound by CV-N	fluorescence was detected	–	270	CVN fluorescence signal in dilution series microarray at low printed concentrations (cyanovirin-N (CVN); printed carbohydrate 0.008 mM to 2 mM (FIG. 8)): showed discernable fluorescence at concentrations where the signals of the other structures were unobservable
branched trimannoside [compound 4]	–	no binding activity	–	–	–
O=C[C@H](O)[C@@H](O)[C@@H](O)[C@H](O)CO [compound 2, galactose]	–	no binding activity	–	–	fluorescence of beads in dilution series of labeled ConA (Concanavalin A (ConA) [1]; labeled ConA 0 to 400 μg mL^−1, very high lectin concentrations (FIG. 18)): no increase in fluorescence; labeled ConA binding to saccharide-bearing beads (rhodamine fluorescence) (Concanavalin A (ConA) [1]; labeled ConA 50 μg mL^−1, five minutes): no ConA was observed; FITC-labeled ConA fluorescence on immobilized saccharide spots (Concanavalin A (ConA) [2]): no fluorescence
B1	–	–	–	–	toxicity to host cells (host cells): minimal toxicity to host cells; inactivation of HIV strains (HIV strains): irreversibly inactivate a wide variety of HIV strains
